The source of these data is patent US20240425524A1, “SPIROTRICYCLE RIPK1 INHIBITORS AND METHODS OF USES THEREOF” (Merck Sharp & Dohme LLC, priority 2021, published 2024).

Sequence of RIPK1 (Q13546 1-327): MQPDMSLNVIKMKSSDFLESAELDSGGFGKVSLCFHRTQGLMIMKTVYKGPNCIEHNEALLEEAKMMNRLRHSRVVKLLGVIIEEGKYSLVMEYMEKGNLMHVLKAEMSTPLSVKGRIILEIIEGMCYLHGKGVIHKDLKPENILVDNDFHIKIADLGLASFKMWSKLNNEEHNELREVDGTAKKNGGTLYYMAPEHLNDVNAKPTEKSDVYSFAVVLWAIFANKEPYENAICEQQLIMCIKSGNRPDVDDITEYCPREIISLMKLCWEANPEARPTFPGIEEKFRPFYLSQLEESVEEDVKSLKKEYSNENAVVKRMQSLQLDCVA

In this experiment the target is RIPK1 (Homo sapiens (Human), UniProt Q13546). The experiment can be described thus: RIPK1-ADP-Glo Enzymatic Assay. It is filed as biochemical. As to conditions: recombinant GST-RIPK1 kinase domain (residues 1-327), 25 nM, ten-point titration, 30 minutes pre-incubation. On the procedure:
The enzymatic activity of RIPK1 was measured using an assay derived from ADP-Glo kit (™Promega), which provides a luminescent-based ADP detection system. Specifically, the ADP generated by RIPK1 kinase was proportionally detected as luminescent signals in a homogenous fashion. In this context, the assessment of the inhibitory effect of small molecules (EC50) was measured by the effectiveness of the compounds to inhibit the ATP to ADP conversion by RIPK1.
In this assay, the potency (EC50) of each compound was determined from a ten-point (1:3 serial dilution: top compound concentration of 100000 nM) titration curve using the following outlined procedure. To each well of a white ProxiPlus 384 well-plate, 30 nL of compound (1% DMSO in final assay volume of 3 μL) was dispensed, followed by the addition of 2 μL of 1x assay buffer (25 mM Hepes 7.3, 20 mM MgCl2, 50 mM NaCl, 1 mM DTT, 0.005% Tween20, and 0.02% BSA) containing 37.5 nM of GST-RIPK1 (recombinant GST-RIPK1 kinase domain (residues 1-327) enzyme produced from baculovirus-transfected Sf21 cells: MW=62 kDa). Plates were placed in an ambient temperature humidified chamber for a 30 minutes pre-incubation with compound. Subsequently, each reaction was initiated by the addition of 1 μL 1× assay buffer containing […] dephosphorylated-MBP substrate. The final reaction in each well of 3 μL consists of 25 nM of GST-RIPK1, 300 µM ATP, and 3 μM dephosphorylated-MBP. Kinase reactions were allowed to proceed for 150 minutes prior to adding ADP-Glo reagents per Promega's outlined kit protocol. Dose-response curves were generated by plotting percent effect (% product conversion: Y-axis) vs. Logio compound concentrations (X-axis). EC50 values were calculated using a non-linear regression, four-parameters sigmoidal dose-response model and are provided for example compounds of the invention (labeled “RIPK1 EC50 (nM)” throughout the above examples).
(In ADP-Glo the light output rises with the ADP produced.)
Take `COc1cc(N2CCC3(CC2)CN2CC[C@@H](c4cc(F)cc(F)c4)N2C3=O)ccn1` [Example 1.89, (S)-7′-(3,5-difluorophenyl)-1-(2-methoxypyridin-4-yl)dihydro-1′H,3′H,5′H-spiro[piperidine-4,2′-pyrazolo[1,2-a]pyrazol]-1′-one]: the concentration for a half-maximal effect (EC50) worked out at 24 nM.
As for `CNC(=O)c1cc(N2CCC3(CC2)CN2CC[C@@H](c4cc(F)cc(F)c4)N2C3=O)ncn1` [Example 1.86, (S)-6-(7′-(3,5-difluorophenyl)-1′-oxodihydro-1′H,3′H,5′H-spiro[piperidine-4,2′-pyrazolo[1,2-a]pyrazol]-1-yl)-N-methylpyrimidine-4-carboxamide], the half-maximal effective concentration (EC50) turned out to be 555 nM.
Take `Cc1cnn(-c2ccnc(N3CCC4(CC3)CN3CC[C@@H](c5cc(F)cc(F)c5)N3C4=O)c2)c1` [Example 2.26, (S)-7′-(3,5-difluorophenyl)-1-(4-(4-methyl-1H-pyrazol-1-yl)pyridin-2-yl)dihydro-1′H,3′H,5′H-spiro[piperidine-4,2′-pyrazolo[1,2-a]pyrazol]-1′-one]: the EC50 worked out at 98 nM.
Take `O=C1N2[C@H](c3cc(F)cc(F)c3)CCN2CC12CCN(c1cc(C(F)(F)F)ncn1)CC2` [Example 1.94, (S)-7′-(3,5-difluorophenyl)-1-(6-(trifluoromethyl)pyrimidin-4-yl)dihydro-1′H,3′H,5′H-spiro[piperidine-4,2′-pyrazolo[1,2-a]pyrazol]-1′-one]: the half-maximal effective concentration (EC50) was 85 nM.
As to `COC(=O)N1CCC2(CC1)CN1CC[C@@H](c3cc(F)cc(F)c3)N1C2=O` [Example 5.2, methyl (S)-7′-(3,5-difluorophenyl)-1′-oxodihydro-1′H,3′H,5′H-spiro [piperidine-4,2′-pyrazolo[1,2-a]pyrazole]-1-carboxylate], the EC50 was 139 nM.
Regarding `N#Cc1ccc(N2CCC3(CC2)CN2CC[C@@H](c4cc(F)cc(F)c4)N2C3=O)nn1` [Example 1.37, (S)-6-(7′-(3,5-difluorophenyl)-1′-oxodihydro-1′H,3′H,5′H-spiro[piperidine-4,2′-pyrazolo[1,2-a]pyrazol]-1-yl)pyridazine-3-carbonitrile], the EC50 was 473 nM.
With `O=C1N2[C@H](c3cc(F)cc(F)c3)CCN2CC12CCN(c1ncccn1)CC2` [Example 1.55, (S)-7′-(3,5-difluorophenyl)-1-(pyrimidin-2-yl)dihydro-1′H,3′H,5′H-spiro[piperidine-4,2′-pyrazolo[1,2-a]pyrazol]-1′-one] the figure was 804 nM.
Regarding `O=C1N2[C@H](c3cc(F)cc(F)c3)CCN2CC12CCN(c1ncc(Br)cn1)CC2` [Example 1.54, (S)-1-(5-bromopyrimidin-2-yl)-7′-(3,5-difluorophenyl)dihydro-1′H,3′H,5′H-spiro[piperidine-4,2′-pyrazolo[1,2-a]pyrazol]-1′-one], the EC50 is 17 nM.
With `Cc1nc(N2CCC3(CC2)CN2CC[C@@H](c4cc(F)cc(F)c4)N2C3=O)ncc1OC(F)F` [Example 1.26, (S)-1-(5-(difluoromethoxy)-4-methylpyrimidin-2-yl)-7′-(3,5-difluorophenyl)dihydro-1′H,3′H,5′H-spiro [piperidine-4,2′-pyrazolo[1,2-a]pyrazol]-1′-one] the figure was 15 nM; with `CC(C)Oc1cc(N2CCC3(CC2)CN2CC[C@@H](c4cc(F)cc(F)c4)N2C3=O)ncc1C#N` [Example 1.59, (S)-6-(7′-(3,5-difluorophenyl)-1′-oxodihydro-1′H,3′H,5′H-spiro[piperidine-4,2′-pyrazolo[1,2-a]pyrazol]-1-yl)-4-isopropoxynicotinonitrile], 18 nM.
With `O=C(c1cnccn1)N1CCC2(CC1)CN1CC[C@@H](c3cc(F)cc(F)c3)N1C2=O` [Example 4.1, (S)-7′-(3,5-difluorophenyl)-1-(pyrazine-2-carbonyl) dihydro-1′H,3′H,5′H-spiro [piperidine-4,2′-pyrazolo[1,2-a]pyrazol]-1′-one] the figure was 50 nM; with `O=C1N2[C@H](c3cc(F)cc(F)c3)CCN2CC12CCN(c1cc(-n3cccn3)ncn1)CC2` [Example 1.17, (S)-1-(6-(1H-pyrazol-1-yl)pyrimidin-4-yl)-7′-(3,5-difluorophenyl)dihydro-1′H,3′H,5′H-spiro[piperidine-4,2′-pyrazolo[1,2-a]pyrazol]-1′-one], 20 nM; with `CCCOc1ccnc(N2CCC3(CC2)CN2CC[C@@H](c4cc(F)cc(F)c4)N2C3=O)c1` [Example 2.24, (S)-7′-(3,5-difluorophenyl)-1-(4-propoxypyridin-2-yl)dihydro-l′H,3′H,5′H-spiro[piperidine-4,2′-pyrazolo[1,2-a]pyrazol]-1′-one], 907 nM.
Next, `O=C1N2[C@H](c3cc(F)cc(F)c3)CCN2CC12CCN(c1ccnc(C(F)F)n1)CC2` [Example 1.8, (7′S)-1-[2-(difluoromethyl)pyrimidin-4-yl]-7′-(3,5-difluorophenyl)dihydro-1′H,3′H,5′H-spiro[piperidine-4,2′-pyrazolo[1,2-a]pyrazol]-1′-one]: 16 nM; `O=C(c1cc(F)c(F)c(F)c1)N1CCC2(CC1)CN1CC[C@@H](c3cc(F)cc(F)c3)N1C2=O` [Example 4.10, (S)-7′-(3,5-difluorophenyl)-1-(3,4,5-trifluorobenzoyl) dihydro-1′H,3′H,5′H-spiro[piperidine-4,2′-pyrazolo[1,2-a]pyrazol]-l′-one]: 67 nM.
In the case of `CSc1cnc(N2CCC3(CC2)CN2CC[C@@H](c4cc(F)cc(F)c4)N2C3=O)nc1` [Example 1.22, (S)-7′-(3,5-difluorophenyl)-1-(5-(methylthio)pyrimidin-2-yl)dihydro-1′H,3′H,5′H-spiro [piperidine-4,2′-pyrazolo[1,2-a]pyrazol]-1′-one], the half-maximal effective concentration (EC50) is 89 nM.
Next, `COc1ccc(C(=O)N2CCC3(CC2)CN2CC[C@@H](c4cc(F)cc(F)c4)N2C3=O)cc1F` [Example 4.16, (S)-7′-(3,5-difluorophenyl)-1-(3-fluoro-4-methoxybenzoyl) dihydro-l′H,3′H,5′H-spiro[piperidine-4,2′-pyrazolo[1,2-a]pyrazol]-l′-one]: 83 nM.
With `COc1nc(N2CCC3(CC2)CN2CC[C@@H](c4cc(F)cc(F)c4)N2C3=O)ncc1F` [Example 1.85, (S)-7′-(3,5-difluorophenyl)-1-(5-fluoro-4-methoxypyrimidin-2-yl)dihydro-1′H,3′H,5′H-spiro[piperidine-4,2′-pyrazolo[1,2-a]pyrazol]-1′-one] the figure was 22 nM.
On to `O=C1N2[C@H](c3cc(F)cc(F)c3)CCN2CC12CCN(c1ncnc3sccc13)CC2` [Example 1.68, (S)-7′-(3,5-difluorophenyl)-1-(thieno[2,3-d]pyrimidin-4-yl)dihydro-1′H,3′H,5′H-spiro [piperidine-4,2′-pyrazolo[1,2-a]pyrazol]-1′-one], for which the EC50 amounted to 24 nM.
Next, `COc1ccc(F)cc1C(=O)N1CCC2(CC1)CN1CC[C@@H](c3cc(F)cc(F)c3)N1C2=O` [Example 4.14, (S)-7′-(3,5-difluorophenyl)-1-(5-fluoro-2-methoxybenzoyl) dihydro-l′H,3′H,5′H-spiro[piperidine-4,2′-pyrazolo[1,2-a]pyrazol]-l′-one]: 386 nM; `N#Cc1ccc(C(=O)N2CCC3(CC2)CN2CC[C@@H](c4cc(F)cc(F)c4)N2C3=O)cc1F` [Example 4.15, (S)-4-(7′-(3,5-difluorophenyl)-1′-oxodihydro-1′H,3′H,5′H-spiro[piperidine-4,2′-pyrazolo[1,2-a]pyrazole]-1-carbonyl)-2-fluorobenzonitrile]: 858 nM; `O=C1N2[C@H](c3cc(F)cc(F)c3)CCN2CC12CCN(c1ncc3c(n1)CCCC3)CC2` [Example 1.32, (S)-7′-(3,5-difluorophenyl)-1-(5,6,7,8-tetrahydroquinazolin-2-yl)dihydro-1′H,3′H,5′H-spiro[piperidine-4,2′-pyrazolo[1,2-a]pyrazol]-1′-one]: 288 nM.
With `N#Cc1ccc(N2CCC3(CC2)CN2CC[C@@H](c4cc(F)cc(F)c4)N2C3=O)n2nccc12` [Example 7.1] the figure was 6 nM; with `O=C1N2[C@H](c3cc(F)cc(F)c3)CCN2CC12CCN(c1cncc(Cl)n1)CC2` [Example 1.40, (S)-1-(6-chloropyrazin-2-yl)-7′-(3,5-difluorophenyl)dihydro-1′H,3′H,5′H-spiro[piperidine-4,2′-pyrazolo[1,2-a]pyrazol]-1′-one], 407 nM.
Next, `CCn1cnc2c(N3CCC4(CC3)CN3CC[C@@H](c5cc(F)cc(F)c5)N3C4=O)ncnc21` [Example 3.2, (S)-7′-(3,5-difluorophenyl)-1-(9-ethyl-9H-purin-6-yl)dihydro-l′H,3′H,5′H-spiro[piperidine-4,2′-pyrazolo[1,2-a]pyrazol]-1′-one]: 765 nM; `Cc1cc(N2CCC3(CC2)CN2CC[C@@H](c4cc(F)cc(F)c4)N2C3=O)nc(Cl)n1` [Example 1.48, (S)-1-(2-chloro-6-methylpyrimidin-4-yl)-7′-(3,5-difluorophenyl)dihydro-1′H,3′H,5′H-spiro[piperidine-4,2′-pyrazolo[1,2-a]pyrazol]-1′-one]: 144 nM.

One may read the EC50 as the midpoint of the concentration-response curve.
